Results as given in the NIST ThermoML archive (doi:10.1021/je060419q).
Numbers after ± are expanded uncertainties.

Conditions: Transpiration method

OCCCO [propan-1,3-diol]
Liquid
Conditions | vapor or sublimation pressure [kPa]
293.5 K | 0.00186 ± 0.00014
303.2 K | 0.00447 ± 0.00032
309.3 K | 0.00788 ± 0.00056
312.2 K | 0.00997 ± 0.00072
315.3 K | 0.01329 ± 0.00095
318.4 K | 0.01659 ± 0.0012
321.3 K | 0.02168 ± 0.0016
324.3 K | 0.02764 ± 0.002
327.3 K | 0.03558 ± 0.0025
330.3 K | 0.04372 ± 0.0031
333.5 K | 0.05556 ± 0.004
336.4 K | 0.06842 ± 0.0049
339.4 K | 0.08464 ± 0.006
342.3 K | 0.1053 ± 0.0075

CC(C)(CO)CO [2,2-dimethyl-1,3-propanediol]
Conditions | vapor or sublimation pressure [kPa]
283.9 K, Crystal 2 | 0.00029 ± 2e-05
288.5 K, Crystal 2 | 0.00052 ± 4e-05
291.2 K, Crystal 2 | 0.00074 ± 6e-05
295.2 K, Crystal 2 | 0.00119 ± 9e-05
298.4 K, Crystal 2 | 0.00174 ± 0.00013
301.7 K, Crystal 2 | 0.00261 ± 0.00019
304.7 K, Crystal 2 | 0.00367 ± 0.00027
307.9 K, Crystal 2 | 0.00535 ± 0.00039
309.4 K, Crystal 2 | 0.00615 ± 0.00044
311.3 K, Crystal 2 | 0.00735 ± 0.00053
314.3 K, Crystal 1 | 0.01057 ± 0.00077
317.3 K, Crystal 1 | 0.01416 ± 0.001
320.2 K, Crystal 1 | 0.01849 ± 0.0013
323.4 K, Crystal 1 | 0.02447 ± 0.0018
326.4 K, Crystal 1 | 0.03147 ± 0.0023
329.4 K, Crystal 1 | 0.04056 ± 0.0029
332.3 K, Crystal 1 | 0.05153 ± 0.0037
335.3 K, Crystal 1 | 0.06721 ± 0.0048
338.2 K, Crystal 1 | 0.08442 ± 0.006
341.2 K, Crystal 1 | 0.1056 ± 0.0075
344.2 K, Crystal 1 | 0.1314 ± 0.0094
347.2 K, Crystal 1 | 0.1654 ± 0.012

CC(O)CC(C)(C)O (stereo not drawn) [2-methyl-2,4-pentanediol]
Liquid
Conditions | vapor or sublimation pressure [kPa]
285.2 K | 0.0025 ± 0.00018
287.9 K | 0.00333 ± 0.00024
291.2 K | 0.00474 ± 0.00034
294.2 K | 0.00648 ± 0.00047
297.2 K | 0.00858 ± 0.00062
300.2 K | 0.01147 ± 0.00082
303.2 K | 0.01471 ± 0.0011
306.5 K | 0.01997 ± 0.0014
309.4 K | 0.02565 ± 0.0018
312.5 K | 0.03274 ± 0.0023
315.2 K | 0.04092 ± 0.0029
318.2 K | 0.05208 ± 0.0037
321.2 K | 0.06475 ± 0.0046
323.3 K | 0.07752 ± 0.0055
326.3 K | 0.09448 ± 0.0067
329.4 K | 0.1239 ± 0.0088

CC(O)CC(C)O (stereo not drawn) [2,4-pentanediol]
Liquid
Conditions | vapor or sublimation pressure [kPa]
297.2 K | 0.0048 ± 0.00035
300.2 K | 0.00645 ± 0.00047
303.2 K | 0.0085 ± 0.00061
306.2 K | 0.0111 ± 0.0008
309.2 K | 0.01453 ± 0.001
312.2 K | 0.01892 ± 0.0014
315.3 K | 0.0239 ± 0.0017
318.4 K | 0.03119 ± 0.0022
321.4 K | 0.04095 ± 0.003
324.4 K | 0.05507 ± 0.004
327.5 K | 0.07024 ± 0.005
330.5 K | 0.08735 ± 0.0062
333.4 K | 0.1096 ± 0.0078
336.5 K | 0.1376 ± 0.0098
339.2 K | 0.1648 ± 0.012
344.4 K | 0.2419 ± 0.017
347.3 K | 0.2929 ± 0.021

CC(CO)CO [2-methyl-1,3-propanediol]
Liquid
Conditions | vapor or sublimation pressure [kPa]
297.3 K | 0.00204 ± 0.00015
300.4 K | 0.00285 ± 0.00021
303.4 K | 0.00364 ± 0.00026
306.4 K | 0.0049 ± 0.00036
309.4 K | 0.00661 ± 0.00048
312.4 K | 0.00841 ± 0.0006
312.5 K | 0.00861 ± 0.00061
314.5 K | 0.00996 ± 0.00072
316.4 K | 0.01205 ± 0.00086
318.5 K | 0.0141 ± 0.001
319.5 K | 0.01551 ± 0.0011
321.4 K | 0.01842 ± 0.0013
322.5 K | 0.01984 ± 0.0014
323.5 K | 0.02169 ± 0.0015
323.6 K | 0.02202 ± 0.0016
326.4 K | 0.02689 ± 0.0019
326.6 K | 0.02817 ± 0.002
328.5 K | 0.03259 ± 0.0023
328.6 K | 0.03396 ± 0.0024
331.4 K | 0.04115 ± 0.0029
333.4 K | 0.0469 ± 0.0034
336.3 K | 0.05931 ± 0.0043
338.6 K | 0.07262 ± 0.0052
341.4 K | 0.08656 ± 0.0061
342.6 K | 0.09448 ± 0.0069
343.5 K | 0.1068 ± 0.0079
347.6 K | 0.1379 ± 0.0098
349.3 K | 0.1589 ± 0.011
352.5 K | 0.1921 ± 0.014
355.4 K | 0.2407 ± 0.017
357.5 K | 0.2643 ± 0.019

CC(O)CCO (stereo not drawn) [1,3-butanediol]
Liquid
Conditions | vapor or sublimation pressure [kPa]
288.3 K | 0.00139 ± 0.0001
290.3 K | 0.00168 ± 0.00012
292.9 K | 0.00235 ± 0.00017
303.5 K | 0.00651 ± 0.00046
308.3 K | 0.00994 ± 0.00071
311.3 K | 0.01301 ± 0.00094
314.3 K | 0.01723 ± 0.0012
317.3 K | 0.02182 ± 0.0016
320.3 K | 0.02852 ± 0.0021
323.3 K | 0.03664 ± 0.0026
326.3 K | 0.04618 ± 0.0033
329.3 K | 0.05855 ± 0.0042
332.3 K | 0.07427 ± 0.0053
